In patent US6229055A, “Synthesis of fluorinated xanthene derivatives” (Molecular Probes, Inc., priority 2000, dated 2001):

Columns and labels:
[1] = tested on: ATP-dependent dye efflux mechanisms in lymphoid-B cell lines; assay: Dye efflux from labeled cells with and without verapamil or probenecid, flow cytometry; type: cell-based
Protocol: Identical batches of lymphoid-B cell lines cells are separately incubated with […] solutions of 4,5,6,7-tetrafluorofluorescein diacetate (Compound 25), 2',7'-dichloro4,5,6,7-tetrafluorofluorescein diacetate (Compound 28), 2',4,5,6,7,7'-hexafluorofluorescein diacetate ([…]) and 2',4',5',7'-tetrafluorofluorescein diacetate. To one set of each cells is added 100 μM verapamil and to another 1 mM probenecid, both of which are known to block ATP-dependent dye efflux mechanisms, as found in multidrug resistant of cells. Without washing, the cells are analyzed for brightness by flow cytometry using 488-nm excitation.

[2] = tested on: human lymphoid B-cell culture; assay: Cell labeling with fluorinated fluorescein diacetates, flow cytometry; type: cell-based; conditions: 1 μM, 37° C., 30 minutes, washed, fixed; compared with FDA after two hours (FIG. 5)
Protocol: Cells from a human lymphoid B-cell culture in RPMI 1640 medium are treated with 1 μM Compound 25 (4,5,6,7-TFFDA), Compound 26 (2',4,5,6,7,7'-HFFDA), or fluorescein diacetate (FDA) at 37° C. for 30 minutes. Following centrifugation and washing in PBS, the pellets are resuspended in RPMI 1640 medium for 15 min, recentrifuged and washed in PBS, fixed with 3.7% formaldehyde in PBS and analyzed by flow cytometry using 488 nm excitation. […] Alternatively, the stained and washed cells are viewed or analyzed without fixation.

[3] = tested on: rabbit polyclonal anti-fluorescein IgG (H+L) fraction; assay: Fluorescence quenching by anti-fluorescein antibody; type: binding; conditions: 5×10^-9 M dye
Protocol: Solutions of 5×10^-9 M fluorescein and 5×10^-9 M 2',7'-difluorofluorescein (Compound 29) are prepared in 100 mM potassium phosphate buffer, pH 8.0. The fluorescence of each solution is read with excitation at 490 nm. Sequential additions of 0.5 mg/mL rabbit polyclonal anti-fluorescein IgG (H+L) fraction (Molecular Probes, Inc.) are added and the fluorescence measurements are repeated.

[4] = Photodecomposition on illumination in fluorometer; type: physicochemical; conditions: % of decreased fluorescence intensity after 33 minutes of illumination in fluorometer at wavelength of maximum excitation
Protocol: *% of decreased fluorescence intensity after 33 minutes of illumination in
fluorometer at wavelength of maximum excitation

[5] = Spectral properties of selected fluorinated fluoresceins and rhodols; type: physicochemical; conditions: for Abs.: absorption maximum; for Em.: emission maximum; for ε × 10^-3: extinction coefficient, value is ε × 10^-3; for Quantum Yield: fluorescence quantum yield
[6] = pH titration of fluorophores (pKa)
Protocol: The dye of interest is first dissolved in a series of buffers that have each been calibrated using a pH meter. Acetate buffers are typically used in the range of pH 46, and phosphate buffers in the pH range 68. Absorption measurements are made using solutions that are approximately 10 1M in concentration, and fluorescence measurements are made using solutions that are approximately 1 μM in concentration. The absorption or emission data is then plotted versus pH to determine pKa values.

[7] = target: T1, Endogenous (Lysosomal) β-galactosidase in NIH 3T3 cells (Mus musculus, UniProt P23780); assay: Detection of endogenous (lysosomal) β-galactosidase activity in intact cells by flow cytometry; type: cell-based; conditions: 1 μM, 37° C., 30 minutes; for Fluorescence Emission: normalized to FDG, Table 4
T1 construct: Endogenous (Lysosomal) β-galactosidase Activity in Intact Cells; endogenous in cells; host or cells: NIH 3T3
T1 sequence (P23780 30-647): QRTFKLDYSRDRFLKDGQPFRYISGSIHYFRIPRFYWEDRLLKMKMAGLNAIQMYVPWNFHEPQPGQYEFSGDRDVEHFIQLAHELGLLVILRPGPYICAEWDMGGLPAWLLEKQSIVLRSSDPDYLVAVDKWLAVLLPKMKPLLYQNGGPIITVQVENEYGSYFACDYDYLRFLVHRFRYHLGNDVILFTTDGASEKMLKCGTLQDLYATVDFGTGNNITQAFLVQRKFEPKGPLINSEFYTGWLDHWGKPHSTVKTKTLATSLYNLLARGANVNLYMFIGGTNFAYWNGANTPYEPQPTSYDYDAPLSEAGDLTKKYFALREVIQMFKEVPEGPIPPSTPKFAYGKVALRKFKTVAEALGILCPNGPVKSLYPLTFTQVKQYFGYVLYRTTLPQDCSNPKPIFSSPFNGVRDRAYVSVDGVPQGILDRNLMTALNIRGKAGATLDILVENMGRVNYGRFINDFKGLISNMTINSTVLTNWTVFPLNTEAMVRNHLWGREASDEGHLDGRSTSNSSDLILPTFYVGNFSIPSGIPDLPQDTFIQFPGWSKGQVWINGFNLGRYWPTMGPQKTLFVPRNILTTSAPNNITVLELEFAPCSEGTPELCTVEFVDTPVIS
Protocol: NIH 3T3 cells that are not transfected with exogenous β-galactosidase were cultured in Dulbecco's Modified Minimal Essential Medium supplemented with 10% fetal bovine serum and 2 mM L-glutamine. Stock solutions of TFMFDG and TFFDG in phosphate buffered saline (PBS) are added to the cell culture medium to obtain a final dye concentration of 1 μM. The cells are incubated at 37° C. for 30 minutes, put on ice and assayed immediately by flow cytometry using a FACS-Vantage instrument equipped with an argon-ion laser (488 nm excitation). Fluorescence emission is collected using a 515 nm long-pass filter and a single photomultiplier tube.

[8] = antibody volume 0 μL, pH 8.0, excitation 490 nm
[9] = antibody volume 2 μL of 0.5 mg/mL, pH 8.0
[10] = antibody volume 4 μL of 0.5 mg/mL, pH 8.0
[11] = antibody volume 6 μL of 0.5 mg/mL, pH 8.0
[12] = antibody volume 8 μL of 0.5 mg/mL, pH 8.0
[13] = antibody volume 10 μL of 0.5 mg/mL, pH 8.0
[14] = antibody volume 12 μL of 0.5 mg/mL, pH 8.0
[15] = antibody volume 15 μL of 0.5 mg/mL, pH 8.0

SMILES: CC(=O)Oc1c(F)cc2c(c1F)Oc1c(cc(F)c(OC(C)=O)c1F)C21OC(=O)c2ccccc21 [2',4',5',7'-TFFDA, 2',4',5',7'-tetrafluorofluorescein diacetate]
- Mean Fluorescence intensity of labeled cells ([1]; 100 μM verapamil): 14.0
- Mean Fluorescence intensity of labeled cells ([1]; 1 mM Probenecid): 12.8
- Mean Fluorescence intensity of labeled cells ([1]; No drug): 2.9
- fluorescence of stained cells [2]: weakly fluorescent

SMILES: CC(=O)Oc1cc2c(cc1F)C1(OC(=O)c3c(F)c(F)c(F)c(F)c31)c1cc(F)c(OC(C)=O)cc1O2 [Compound 27, 2',4,5,6,7,7'-hexafluorofluorescein Diacetate]
- Mean Fluorescence intensity of labeled cells ([1]; 100 μM verapamil): 212
- Mean Fluorescence intensity of labeled cells ([1]; 1 mM Probenecid): 172
- Mean Fluorescence intensity of labeled cells ([1]; No drug): 26.9
- fluorescence of stained cells [2]: significantly higher fluorescence

SMILES: CC(=O)Oc1cc2c(cc1Cl)C1(OC(=O)c3c(F)c(F)c(F)c(F)c31)c1cc(Cl)c(OC(C)=O)cc1O2 [Compound 28, 2',7'-dichloro4,5,6,7-tetrafluorofluorescein Diacetate]
- Mean Fluorescence intensity of labeled cells ([1]; 100 μM verapamil): 110
- Mean Fluorescence intensity of labeled cells ([1]; 1 mM Probenecid): 80.6
- Mean Fluorescence intensity of labeled cells ([1]; No drug): 15.6

SMILES: O=C1OC2(c3cc(F)c(O)cc3Oc3cc(O)c(F)cc32)c2ccccc21 [Compound 29, 2',7'-difluorofluorescein]
- Fluorescence Intensity [3, 8]: 100%
- Fluorescence Intensity [3, 9]: 83.6%
- Fluorescence Intensity [3, 10]: 67.3%
- Fluorescence Intensity [3, 11]: 51.9%
- Fluorescence Intensity [3, 12]: 36.5%
- Fluorescence Intensity [3, 13]: 23.8%
- Fluorescence Intensity [3, 14]: 13.4%
- Fluorescence Intensity [3, 15]: 6.3%
- photodecomposition [4]: 8.0%
- Abs. [5]: 490 nm
- Em. [5]: 513 nm
- ε × 10^-3 [5]: 84.7 cm^-1 M^-1
- Quantum Yield [5]: 0.97
- pKa ([6]; Table 1): 4.7
- pKa ([6]; approximate, from fluorescence emission versus pH (FIG. 3), in water): ~ 4.7

SMILES: O=C1OC2(c3ccc(O[C@@H]4O[C@H](CO)[C@H](O)[C@H](O)[C@H]4O)cc3Oc3cc(O[C@@H]4O[C@H](CO)[C@H](O)[C@H](O)[C@H]4O)ccc32)c2c(F)c(F)c(F)c(F)c21 [Compound 95, 4,5,6,7-tetrafluorofluorescein, bis-O-galactoside]
- fluorescence signal relative to FDG [7]: 4.1 times
- Fluorescence Emission [7]: 4.1

SMILES: O=C1OC2(c3ccc(O[C@@H]4O[C@H](CO)[C@H](O)[C@H](O)[C@H]4O)cc3Oc3cc(O[C@@H]4O[C@H](CO)[C@H](O)[C@H](O)[C@H]4O)ccc32)c2ccccc21 [FDG, fluorescein digalactoside, reference compound]
- Fluorescence Emission [7]: 1.0

SMILES: COc1c(F)c(F)c2c(c1F)C1(OC2=O)c2ccc(O[C@@H]3O[C@H](CO)[C@H](O)[C@H](O)[C@H]3O)cc2Oc2cc(O[C@@H]3O[C@H](CO)[C@H](O)[C@H](O)[C@H]3O)ccc21 [TFMFDG, 4,5,7-trifluoro-6-methoxyfluorescein Digalactoside]
- fluorescence signal relative to FDG [7]: 48.1 times
- Fluorescence Emission [7]: 48.1

SMILES: O=C1OC2(c3ccc(O)cc3Oc3cc(O)ccc32)c2ccccc21 [fluorescein, reference compound]
- Fluorescence Intensity [3, 8]: 100%
- Fluorescence Intensity [3, 9]: 84.6%
- Fluorescence Intensity [3, 10]: 68.8%
- Fluorescence Intensity [3, 11]: 54.3%
- Fluorescence Intensity [3, 12]: 38.5%
- Fluorescence Intensity [3, 13]: 22.9%
- Fluorescence Intensity [3, 14]: 11.7%
- Fluorescence Intensity [3, 15]: 4.4%
- photodecomposition [4]: 17%
- Abs. [5]: 490 nm
- Em. [5]: 514 nm
- ε × 10^-3 [5]: 82.2 cm^-1 M^-1
- Quantum Yield [5]: 0.92
- pKa ([6]; Table 1): 6.5
